The target in assay [1] is human GLP-1 receptor (Homo sapiens, UniProt P43220). The assay is described as follows: cell-based. The note with it: hGLP-1R.
Assay [2] addresses T1, mouse GIP receptor (Mus musculus, UniProt Q0P543).
T1 sequence (Q0P543 19-460): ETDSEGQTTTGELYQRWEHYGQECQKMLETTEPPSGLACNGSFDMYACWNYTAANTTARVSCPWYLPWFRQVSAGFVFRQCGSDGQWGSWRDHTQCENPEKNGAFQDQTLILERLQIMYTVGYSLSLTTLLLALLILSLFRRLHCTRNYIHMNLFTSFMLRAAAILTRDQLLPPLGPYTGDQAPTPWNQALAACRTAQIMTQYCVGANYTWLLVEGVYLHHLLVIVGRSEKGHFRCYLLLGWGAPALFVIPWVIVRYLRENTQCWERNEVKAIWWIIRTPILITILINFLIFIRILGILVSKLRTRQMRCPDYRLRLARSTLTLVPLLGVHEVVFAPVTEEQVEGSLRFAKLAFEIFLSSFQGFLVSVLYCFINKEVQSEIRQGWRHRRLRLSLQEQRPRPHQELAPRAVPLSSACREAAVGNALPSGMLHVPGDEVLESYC
The assay is described as follows: cell-based.
Method: The in vitro functional potency is the measure of target receptor activation in a whole cell assay.
In vitro functional potency was determined by measuring the response of the target receptor in a reporter gene assay in individual cell lines. […] When the respective receptor is activated, it results in the production of cAMP, which in turn results in expression of the luciferase protein. When assay incubation is completed, luciferase substrate (luciferin) is added resulting in the enzymatic conversion of luciferin to oxyluciferin and producing bioluminescence. The luminescence is measured as the readout for the assay.
The cells lines used in these assays were BHK cells with BHKTS13 as a parent cell line. The cell lines were derived from a clone containing the CRE luciferase element and were established by further transfection with the respective receptor to obtain the relevant cell line.
The cells were cultured at 37° C. with 5% CO2 in Cell Culture Medium. They were aliquoted and stored in liquid nitrogen. The cells were kept in continuous culture and were seeded out the day before each assay.
GLP-1R and GcgR Cell Culture Medium consisted of DMEM medium with 10% FBS, 500 μg/mL G418, and 300 μg/mL hygromycin. GIPR Cell Culture Medium consisted of DMEM medium with 10% FBS, 400 μg/mL G418, and 300 μg/mL hygromycin. Assay Buffer consisted of DMEM w/o phenol red, 10 mM Hepes, 1×Glutamax, 1% ovalbumin, and 0.1% Pluronic F-68 with the addition of HSA at twice the final assay concentration.
• 1) Cells were plated at 5000 cells/well and incubated overnight in the assay plate. • 2) Cells were washed once in DPBS. • 3) Stocks of the test compounds and reference compounds in concentrations ranging from 100-300 μM were diluted 1:150 in Assay Buffer. Compounds were then diluted 1:10 in column 1 of a 96 deep well dilution plate and then carried across the row creating a 3.5 fold, 12 point dilution curve. • 4) Assay Buffer (50 μl aliquot) with or without HSA was added to each well in the assay plate. • 5) A 50 μl aliquot of compound or blank was transferred from the dilution plate to the assay plate containing the Assay Buffer with or without HSA. • 6) The assay plate was incubated for 3 h in a 5% CO2 incubator at 37° C. 7) The cells were washed once with DPBS. • 8) A 100 μl aliquot of DPBS was added to each well of the assay plate. • 9) A 100 μl aliquot of steadylite plus reagent (light sensitive) was added to each well of the assay plate. • 10) Each assay plate was covered with aluminum foil to protect it from light and shaken at 250 RPM for 30 min at room temperature. • 11) Each assay plate was read in a microtiter plate reader.
The data from the microtiter plate reader was first regressed in an Excel in order to calculate the x-axis, log scale concentrations based on the individual test compound's stock concentration and the dilutions of the assay. […] The software performs a non-linear regression (log(agonist) vs response). A minimum of two replicates was measured for each sample. The reported values are averages of the replicates.

Assay [3] concerns the target human glucagon receptor (Homo sapiens, UniProt P47871). The assay is described as follows: cell-based.
The target of assay [4] is T2, mouse GLP-1 receptor (Mus musculus, UniProt O35659).
T2 sequence (O35659 22-463): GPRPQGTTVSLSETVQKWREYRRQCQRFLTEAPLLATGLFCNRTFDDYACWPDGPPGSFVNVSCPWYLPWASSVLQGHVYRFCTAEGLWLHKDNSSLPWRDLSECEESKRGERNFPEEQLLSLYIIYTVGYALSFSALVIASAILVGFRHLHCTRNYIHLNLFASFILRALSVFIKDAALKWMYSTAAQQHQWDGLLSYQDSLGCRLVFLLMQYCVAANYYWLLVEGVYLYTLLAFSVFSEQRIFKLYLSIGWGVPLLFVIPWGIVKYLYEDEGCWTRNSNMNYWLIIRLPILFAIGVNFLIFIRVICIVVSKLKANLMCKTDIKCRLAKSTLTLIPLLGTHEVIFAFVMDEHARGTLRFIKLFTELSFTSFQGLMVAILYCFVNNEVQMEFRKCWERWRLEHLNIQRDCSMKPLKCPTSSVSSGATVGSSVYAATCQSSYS

Starred links: 1 amine or outer side, 2 acyl side, 3 side chain; linkers in the order of their positions; H or OH if unused. Non-standard residues stand in square brackets, D forms with d. Residues, ends and D or L forms follow the SMILES beside them. Groups on a side chain read outwards from the residue. *: point of attachment. C20 diacid = O=C(O)CCCCCCCCCCCCCCCCCCC(=O)*; C18 diacid = O=C(O)CCCCCCCCCCCCCCCCC(=O)*; γGlu = O=C(O)[C@H](CCC(=O)[*:2])N[*:1]; εLys = N[C@@H](CCCCN[*:1])C(=O)[*:2]; Trx = NC[C@H]1CC[C@H](C(=O)O)CC1; AEEA = NCCOCCOCC(=O)O; Aib = CC(C)(N)C(=O)O

Sequence of human glucagon receptor (P47871 26-477): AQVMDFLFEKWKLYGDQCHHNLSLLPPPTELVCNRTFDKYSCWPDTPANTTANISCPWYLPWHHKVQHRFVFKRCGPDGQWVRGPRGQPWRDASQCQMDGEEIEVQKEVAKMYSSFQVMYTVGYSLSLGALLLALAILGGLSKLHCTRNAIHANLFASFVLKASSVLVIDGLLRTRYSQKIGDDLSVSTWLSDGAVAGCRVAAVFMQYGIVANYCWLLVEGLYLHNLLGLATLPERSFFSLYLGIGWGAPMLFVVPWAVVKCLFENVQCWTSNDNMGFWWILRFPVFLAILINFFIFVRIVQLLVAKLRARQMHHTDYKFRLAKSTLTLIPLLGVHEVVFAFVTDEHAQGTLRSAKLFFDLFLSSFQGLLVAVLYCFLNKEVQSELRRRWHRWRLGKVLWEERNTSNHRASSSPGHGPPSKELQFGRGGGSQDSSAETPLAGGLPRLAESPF
Sequence of human GLP-1 receptor (P43220 24-463): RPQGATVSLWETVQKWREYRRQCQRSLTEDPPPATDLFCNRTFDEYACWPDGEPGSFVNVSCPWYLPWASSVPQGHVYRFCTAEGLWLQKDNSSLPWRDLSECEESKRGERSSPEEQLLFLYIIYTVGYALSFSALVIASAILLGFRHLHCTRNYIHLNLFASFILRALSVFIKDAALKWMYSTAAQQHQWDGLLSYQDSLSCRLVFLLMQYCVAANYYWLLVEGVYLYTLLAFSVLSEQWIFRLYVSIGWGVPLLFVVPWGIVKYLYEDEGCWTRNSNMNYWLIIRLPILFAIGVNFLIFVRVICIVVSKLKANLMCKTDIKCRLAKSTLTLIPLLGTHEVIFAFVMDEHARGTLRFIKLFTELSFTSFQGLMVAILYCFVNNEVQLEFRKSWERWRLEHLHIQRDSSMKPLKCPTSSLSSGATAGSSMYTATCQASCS

Usually EC50 stands for the concentration giving half of the maximal effect. A lower EC50 goes with higher potency in that assay. Turning to `CC[C@H](C)[C@H](NC(=O)[C@H](CO)NC(=O)[C@H](Cc1ccc(O)cc1)NC(=O)[C@H](CC(=O)O)NC(=O)[C@H](CO)NC(=O)[C@@H](NC(=O)[C@H](Cc1ccccc1)NC(=O)[C@@H](NC(=O)CNC(=O)[C@H](CCC(=O)O)NC(=O)C(C)(C)NC(=O)[C@@H](N)Cc1ccc(O)cc1)[C@@H](C)O)[C@@H](C)O)C(=O)N[C@@H](Cc1ccc(O)cc1)C(=O)N[C@@H](CC(C)C)C(=O)N[C@@H](CCC(=O)O)C(=O)N[C@@H](CCCCN)C(=O)N[C@@H](CCC(N)=O)C(=O)N[C@@H](C)C(=O)N[C@@H](C)C(=O)NC(C)(C)C(=O)N[C@@H](CCCCNC(=O)COCCOCCNC(=O)COCCOCCNC(=O)CC[C@H](NC(=O)[C@H]1CC[C@H](CNC(=O)CCCCCCCCCCCCCCCCCCC(=O)O)CC1)C(=O)O)C(=O)N[C@@H](Cc1ccccc1)C(=O)N[C@H](C(=O)N[C@@H](CC(N)=O)C(=O)N[C@@H](Cc1c[nH]c2ccccc12)C(=O)N[C@@H](CC(C)C)C(=O)N[C@@H](CC(C)C)C(=O)N[C@@H](C)C(=O)NCC(=O)NCC(=O)N1CCC[C@H]1C(=O)N[C@@H](CO)C(=O)N[C@@H](CO)C(=O)NCC(=O)N[C@@H](C)C(=O)N1CCC[C@H]1C(=O)N1CCC[C@H]1C(=O)N1CCC[C@H]1C(=O)N[C@@H](CO)C(N)=O)C(C)C` [Compound 17] (H-Y[Aib]EGTFTSDYSIYLEKQAA[Aib]K([AEEA-AEEA-γGlu-Trx-C20 diacid])FVNWLLAGGPSSGAPPPS-NH2; N-terminus assumed), the EC50 was 0.0041 nM in assay [1] (CRE Luc 0% HSA EC50, 0% HSA); 0.229 nM in assay [1] (CRE Luc 1% HSA EC50, 1% HSA); 0.0219 nM in assay [2]; > 10 nM in assay [3]; 2.3 pM in assay [4].
As for `CC[C@H](C)[C@H](NC(=O)[C@H](CO)NC(=O)[C@H](Cc1ccc(O)cc1)NC(=O)[C@H](CC(=O)O)NC(=O)[C@H](CO)NC(=O)[C@@H](NC(=O)[C@H](Cc1ccccc1)NC(=O)[C@@H](NC(=O)CNC(=O)[C@H](CCC(=O)O)NC(=O)C(C)(C)NC(=O)[C@@H](N)Cc1ccc(O)cc1)[C@@H](C)O)[C@@H](C)O)C(=O)N[C@@H](Cc1ccc(O)cc1)C(=O)N[C@@H](CC(C)C)C(=O)N[C@@H](CCC(=O)O)C(=O)N[C@@H](CCCCN)C(=O)N[C@@H](CCC(N)=O)C(=O)N[C@@H](C)C(=O)N[C@@H](C)C(=O)NC(C)(C)C(=O)N[C@@H](CCCCNC(=O)[C@@H](N)CCCCNC(=O)[C@@H](N)CCCCNC(=O)CC[C@H](NC(=O)[C@H]1CC[C@H](CNC(=O)CCCCCCCCCCCCCCCCCCC(=O)O)CC1)C(=O)O)C(=O)N[C@@H](Cc1ccccc1)C(=O)N[C@H](C(=O)N[C@@H](CC(N)=O)C(=O)N[C@@H](Cc1c[nH]c2ccccc12)C(=O)N[C@@H](CC(C)C)C(=O)N[C@@H](CC(C)C)C(=O)N[C@@H](C)C(=O)NCC(=O)NCC(=O)N1CCC[C@H]1C(=O)N[C@@H](CO)C(=O)N[C@@H](CO)C(=O)NCC(=O)N[C@@H](C)C(=O)N1CCC[C@H]1C(=O)N1CCC[C@H]1C(=O)N1CCC[C@H]1C(=O)N[C@@H](CO)C(N)=O)C(C)C` [Compound 16] (H-Y[Aib]EGTFTSDYSIYLEKQAA[Aib]K([εLys-εLys-γGlu-Trx-C20 diacid])FVNWLLAGGPSSGAPPPS-NH2; N-terminus assumed), the half-maximal effective concentration (EC50) in assay [1] (CRE Luc 0% HSA EC50, 0% HSA) is 0.0061 nM; in assay [1] (CRE Luc 1% HSA EC50, 1% HSA), 0.202 nM; in assay [2], 0.0169 nM; in assay [3] it was > 10 nM; in assay [4] it was 3.5 pM.
Turning to `CC[C@H](C)[C@H](NC(=O)[C@H](CO)NC(=O)[C@H](Cc1ccc(O)cc1)NC(=O)[C@H](CC(=O)O)NC(=O)[C@H](CO)NC(=O)[C@@H](NC(=O)[C@H](Cc1ccccc1)NC(=O)[C@@H](NC(=O)CNC(=O)[C@H](CCC(=O)O)NC(=O)C(C)(C)NC(=O)[C@@H](N)Cc1ccc(O)cc1)[C@@H](C)O)[C@@H](C)O)C(=O)N[C@@H](Cc1ccc(O)cc1)C(=O)N[C@@H](CC(C)C)C(=O)N[C@@H](CC(=O)O)C(=O)N[C@@H](CCCCN)C(=O)N[C@@H](CCC(N)=O)C(=O)N[C@@H](C)C(=O)N[C@@H](C)C(=O)NC(C)(C)C(=O)N[C@@H](CCCCNC(=O)[C@@H](N)CCCCNC(=O)[C@@H](N)CCCCNC(=O)CC[C@H](NC(=O)CCCCCCCCCCCCCCCCCCC(=O)O)C(=O)O)C(=O)N[C@@H](Cc1ccccc1)C(=O)N[C@H](C(=O)N[C@@H](CC(N)=O)C(=O)N[C@@H](Cc1c[nH]c2ccccc12)C(=O)N[C@@H](CC(C)C)C(=O)N[C@@H](CC(C)C)C(=O)N[C@@H](C)C(=O)NCC(=O)NCC(=O)N1CCC[C@H]1C(=O)N[C@@H](CO)C(=O)N[C@@H](CO)C(=O)NCC(=O)N[C@@H](C)C(=O)N1CCC[C@H]1C(=O)N1CCC[C@H]1C(=O)N1CCC[C@H]1C(=O)N[C@@H](CO)C(N)=O)C(C)C` [Compound 13] (H-Y[Aib]EGTFTSDYSIYLDKQAA[Aib]K([εLys-εLys-γGlu-C20 diacid])FVNWLLAGGPSSGAPPPS-NH2; N-terminus assumed), the EC50 in assay [1] (CRE Luc 0% HSA EC50, 0% HSA) was 0.0124 nM; in assay [1] (CRE Luc 1% HSA EC50, 1% HSA), 0.103 nM; in assay [2] it was 0.057 nM; in assay [3], > 10 nM; in assay [4], 5.4 pM.
As for `CC[C@H](C)[C@H](NC(=O)[C@H](CO)NC(=O)[C@H](Cc1ccc(O)cc1)NC(=O)[C@H](CC(=O)O)NC(=O)[C@H](CO)NC(=O)[C@@H](NC(=O)[C@H](Cc1ccccc1)NC(=O)[C@@H](NC(=O)CNC(=O)[C@H](CCC(=O)O)NC(=O)C(C)(C)NC(=O)[C@@H](N)Cc1ccc(O)cc1)[C@@H](C)O)[C@@H](C)O)C(=O)N[C@@H](Cc1ccc(O)cc1)C(=O)N[C@@H](CC(C)C)C(=O)N[C@@H](CCC(=O)O)C(=O)N[C@@H](CCCCN)C(=O)N[C@@H](CCCCNC(=O)[C@@H](N)CCCCNC(=O)[C@@H](N)CCCCNC(=O)CC[C@H](NC(=O)[C@H]1CC[C@H](CNC(=O)CCCCCCCCCCCCCCCCCCC(=O)O)CC1)C(=O)O)C(=O)N[C@@H](C)C(=O)N[C@@H](C)C(=O)NC(C)(C)C(=O)N[C@@H](CCC(=O)O)C(=O)N[C@@H](Cc1ccccc1)C(=O)N[C@H](C(=O)N[C@@H](CC(N)=O)C(=O)N[C@@H](Cc1c[nH]c2ccccc12)C(=O)N[C@@H](CC(C)C)C(=O)N[C@@H](CC(C)C)C(=O)N[C@@H](C)C(=O)NCC(=O)NCC(=O)N1CCC[C@H]1C(=O)N[C@@H](CO)C(=O)N[C@@H](CO)C(=O)NCC(=O)N[C@@H](C)C(=O)N1CCC[C@H]1C(=O)N1CCC[C@H]1C(=O)N1CCC[C@H]1C(=O)N[C@@H](CO)C(N)=O)C(C)C` [Compound 23] (H-Y[Aib]EGTFTSDYSIYLEKK([εLys-εLys-γGlu-Trx-C20 diacid])AA[Aib]EFVNWLLAGGPSSGAPPPS-NH2; N-terminus assumed), the EC50 is 0.004 nM in assay [1] (CRE Luc 0% HSA EC50, 0% HSA); 0.178 nM in assay [1] (CRE Luc 1% HSA EC50, 1% HSA); 0.0175 nM in assay [2]; > 10 nM in assay [3]; 3.7 pM in assay [4].
As to `CC[C@H](C)[C@H](NC(=O)[C@H](CO)NC(=O)[C@H](Cc1ccc(O)cc1)NC(=O)[C@H](CC(=O)O)NC(=O)[C@H](CO)NC(=O)[C@@H](NC(=O)[C@H](Cc1ccccc1)NC(=O)[C@@H](NC(=O)CNC(=O)[C@H](CCC(=O)O)NC(=O)C(C)(C)NC(=O)[C@@H](N)Cc1ccc(O)cc1)[C@@H](C)O)[C@@H](C)O)C(=O)N[C@@H](Cc1ccc(O)cc1)C(=O)N[C@@H](CC(C)C)C(=O)N[C@@H](CCC(=O)O)C(=O)N[C@@H](CCCCN)C(=O)N[C@@H](CCC(N)=O)C(=O)N[C@@H](C)C(=O)N[C@@H](C)C(=O)NC(C)(C)C(=O)N[C@@H](CCCCNC(=O)[C@@H](N)CCCCNC(=O)[C@@H](N)CCCCNC(=O)CC[C@H](NC(=O)CCCCCCCCCCCCCCCCC(=O)O)C(=O)O)C(=O)N[C@@H](Cc1ccccc1)C(=O)N[C@H](C(=O)N[C@@H](CC(N)=O)C(=O)N[C@@H](Cc1c[nH]c2ccccc12)C(=O)N[C@@H](CC(C)C)C(=O)N[C@@H](CC(C)C)C(=O)N[C@@H](C)C(=O)NCC(=O)NCC(=O)N1CCC[C@H]1C(=O)N[C@@H](CO)C(=O)N[C@@H](CO)C(=O)NCC(=O)N[C@@H](C)C(N)=O)C(C)C` [Compound 18] (H-Y[Aib]EGTFTSDYSIYLEKQAA[Aib]K([εLys-εLys-γGlu-C18 diacid])FVNWLLAGGPSSGA-NH2; N-terminus assumed), the EC50 in assay [1] (CRE Luc 0% HSA EC50, 0% HSA) turned out to be 0.0033 nM; in assay [1] (CRE Luc 1% HSA EC50, 1% HSA), 0.0899 nM; in assay [2] it was 0.0243 nM; in assay [4], 2 pM.

The values above are taken from US20230346961A1, “GLP-1 AND GIP RECEPTOR CO-AGONISTS” (Novo Nordisk A/S, priority 2020, published 2023).
